Measurements published in US20210161997A1, “TREATING DISEASES VIA TARGETED MODULATION OF GENE SIGNALING NETWORKS” (Camp4 Therapeutics Corporation, priority 2018, published 2021).

Columns and labels:
MECP2 mRNA [1] = assay: qPCR of MECP2 mRNA in mouse hepatocytes; settings: 10 uM, qPCR relative to DMSO control (FIG. 8)
From the text: (§1) Samples were amplified using Taqman probes from ThermoFisher.

MECP2 mRNA [2] = assay: MECP2 mRNA in primary human hepatocytes (donor 1, donor 2); format: cell-based; settings: two donors, indicated dosages vs DMSO (FIGS. 10A and 10B)
Protocol: Human hepatocytes were obtained from two donors from Massachusetts General Hospital, namely MGH54 and MGH63, and one donor from Lonza, namely HUM4111B. Cryopreserved hepatocytes were cultured in plating media for 16 hours, transferred to maintenance media for 4 hours. Cultured on serum-free media for 2 hours, then a compound was added. The hepatocytes were maintained on the serum-free media for 16 hours prior to gene expression analysis. Primary human hepatocytes were stored in the vapor phase of a liquid nitrogen freezer (about −130° C.).
Human hepatocytes cultured as described above were plated in 24-well format, adding 375,000 cells per well in a volume of 500 ul plating medium. Four hours before treatment, cells were washed with PBS and the medium was changed to either: fresh maintenance medium (complete) or modified maintenance medium.
Compound stocks were prepared at 1000× final concentration and added in a 2-step dilution to the medium to reduce risk of a compound precipitating out of solution when added to the cells, and to ensure reasonable pipetting volumes. One at a time, each compound was first diluted 10-fold in warm (about 37° C.) modified maintenance medium (initial dilution=ID), mixed by vortexing, and the ID was diluted 100-fold into the cell culture (e.g. 5.1 ul into 1 well of a 24-well plate containing 0.5 mL medium). The plate was mixed by carefully swirling and after all wells were treated and returned to the incubator overnight. If desired, separate plates/wells were treated with vehicle-only controls and/or positive controls. If using multi-well plates, controls were included on each plate. After about 18 hours, cells were harvested for further analysis, e.g., ChIP-seq, RNA-seq, ATAC-seq, etc.
as §1

ANGPTL3 = assay: RNA-seq of ANGPTL3 expression in compound-treated primary human hepatocytes; format: cell-based; settings: additional compounds (Table 13), linear fold change
Summary of the method: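 Cryopreserved primary human hepatocytes from three donors, plated at 375,000 cells/well, switched to complete or modified maintenance medium, then dosed with compound (stocks at 1000× final) for about 18 h. Poly(A) mRNA was sequenced directionally, mapped to GRCh38 with STAR, and gene-level abundance (counts, FPKM) estimated with RSEM against GENCODE 24.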

SERPINC1 mRNA [3] = assay: Quantitative PCR of SERPINC1 mRNA in primary human hepatocytes (Lonza Hu4282) treated with compounds; format: cell-based; settings: quantitative PCR; for SERPINC1 mRNA, Lonza Hu4282, 1 uM / SERPINC1 mRNA, Lonza Hu4282, 10 uM: primary human hepatocytes Lonza Hu4282; for SERPINC1 mRNA, Lonza Hu4282, 1 uM / SERPINC1 mRNA, H8290, 1 uM: compound 1 uM; for SERPINC1 mRNA, Lonza Hu4282, 10 uM / SERPINC1 mRNA, H8290, 10 uM: compound 10 uM; for SERPINC1 mRNA, H8290, 1 uM / SERPINC1 mRNA, H8290, 10 uM: hepatocytes H8290
SERPINC1 mRNA [4] = assay: Quantitative PCR of SERPINC1 mRNA in mouse hepatocytes treated with compounds; format: cell-based; settings: for SERPINC1 mRNA, Mouse Heps, 1 uM: compound 1 uM; for SERPINC1 mRNA, Mouse Heps, 10 uM: compound 10 uM
Protocol: as §1
In some examples, RQ Min and RQ Max values are also reported. RQ Min and RQ Max are the minimum and maximum relative levels of gene expression in the test samples, respectively. They were calculated using the confidence level set in the analysis settings and the confidence level was set to one standard deviation (SD). These values were calculated using standard deviation as follows: […].
Compounds were tested in hepatocytes for upregulation of SERPINC1 mRNA for identification of potential treatments of SERPINC1/AT III deficiency.

SERPINC1 mRNA [5] = assay: RNA seq of SERPINC1 in MGH54 cells treated with select compounds; format: cell-based, human; settings: compound 10 uM
SERPINC1 = assay: RNA-seq of SERPINC1 expression in compound-treated primary human hepatocytes; format: cell-based; settings: significance FPKM ≥1, log 2(fold change) ≥0.5, q-value ≤0.05
Protocol: Human hepatocytes were obtained from two donors from Massachusetts General Hospital, namely MGH54 and MGH63, and one donor from Lonza, namely HUM4111B. Cryopreserved hepatocytes were cultured in plating media for 16 hours, transferred to maintenance media for 4 hours. Cultured on serum-free media for 2 hours, then a compound was added. The hepatocytes were maintained on the serum-free media for 16 hours prior to gene expression analysis. Primary human hepatocytes were stored in the vapor phase of a liquid nitrogen freezer (about -130° C.). Human hepatocytes cultured as described above were plated in 24-well format, adding 375,000 cells per well in a volume of 500 ul plating medium. Four hours before treatment, cells were washed with PBS and the medium was changed to either: fresh maintenance medium (complete) or modified maintenance medium. Compound stocks were prepared at 1000× final concentration and added in a 2-step dilution to the medium to reduce risk of a compound precipitating out of solution when added to the cells, and to ensure reasonable pipetting volumes. […] The plate was mixed by carefully swirling and after all wells were treated and returned to the incubator overnight. If desired, separate plates/wells were treated with vehicle-only controls and/or positive controls. If using multi-well plates, controls were included on each plate. After about 18 hours, cells were harvested for further analysis, e.g., ChIP-seq, RNA-seq, ATAC-seq, etc. This protocol is a modified version of the following protocols: MagMAX mirVana Total RNA Isolation Kit User Guide (Applied Biosystems #MAN0011131 Rev B.0), NEBNext Poly(A) mRNA Magnetic Isolation Module ([…]), and NEBNext Ultra Directional RNA Library Prep Kit for Illumina ([…]) (New England Biosystems #E74901). […] Two hundred μl of Lysis Binding Mix was used per well of the multiwell plate containing adherent cells (usually a 24-well plate). For mRNA isolation and library prep, the NEBNext Poly(A) mRNA Magnetic Isolation Module and Directional Prep kit was used. RNA isolated from cells above was quantified, and prepared in […] of each sample in 50 μl of nuclease-free water. This protocol may be run in microfuge tubes or in a 96-well plate. […] Genomic alignments were converted to transcriptome alignments based on reference transcript annotations from the Human GENCODE Gene Set release 24 (Harrow et al., Genome Res. […] Using unique and multimapped transcriptomic alignments, gene-level abundance estimates were computed using RSEM version 1.3.0 (Li and Dewey, BMC Bioinformatics (2011) 12:323) in a strand-aware manner, and including confidence interval sampling calculations, to arrive at posterior mean estimates (PME) of abundances (counts and normalized FPKM-fragments per kilobase of exon per million mapped fragments) from the underlying Bayesian model. Standard QC were applied (read integrity, mapping statistics, library complexity, fragment bias) to remove unsatisfactory samples. Differential gene expression was computed using the negative binomial model implemented by DESeq2 version 1.16.1 (Love et al., Genome Biol. (2014) 15(12):550). […] RNA-seq signals were also normalized by read depth and visualized using the UCSC browser. To identify small molecules that modulate target gene expression, primary human hepatocytes were prepared as a monoculture, and at least one small molecule compound was applied to the cells. RNA-seq was performed to determine the effects of the compounds on the expression of the target genes in hepatocytes. Fold change was calculated by dividing the level of expression in the cell system that had been perturbed by the level of expression in an unperturbed system.

UGT1A1 = assay: RNA-seq of UGT1A1 expression in compound-treated primary human hepatocytes; format: cell-based
Summary of the method: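 Cryopreserved primary human hepatocytes from three donors were plated in 24-well format, then treated with compound diluted from 1000× stocks in serum-free maintenance medium for about 16–18 h. Poly(A) RNA-seq log2 fold change was computed against vehicle/pan-experiment controls. Significance required FPKM ≥1, log2FC ≥0.5 and q ≤0.05.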

APOL1 mRNA = APOL1 mRNA in primary human hepatocytes treated with Momelotinib or metabolite M21; format: cell-based; settings: 3.3 uM vs DMSO (FIG. 11, FIG. 12)

| SMILES | MECP2 mRNA change in mouse hepatocytes (MECP2 mRNA [1]) | MECP2 mRNA change in primary human hepatocytes (MECP2 mRNA [2]) | ANGPTL3-LINEAR FOLD CHANGE (ANGPTL3) | SERPINC1 mRNA, Lonza Hu4282, 1 uM (SERPINC1 mRNA [3]) | SERPINC1 mRNA, Lonza Hu4282, 10 uM (SERPINC1 mRNA [3]) | SERPINC1 mRNA, Mouse Heps, 1 uM (SERPINC1 mRNA [4]) | SERPINC1 mRNA, Mouse Heps, 10 uM (SERPINC1 mRNA [4]) | SERPINC1, MGH54 (RNA seq), 10 uM (SERPINC1 mRNA [5]) | SERPINC1 mRNA, H8290, 1 uM (SERPINC1 mRNA [3]) | SERPINC1 mRNA, H8290, 10 uM (SERPINC1 mRNA [3]) | SERPINC1 Fold Change (Log2) (SERPINC1) | UGT1A1 Fold Change (Log2) (UGT1A1) | APOL mRNA change in primary human hepatocytes (APOL1 mRNA) |
| --- | --- | --- | --- | --- | --- | --- | --- | --- | --- | --- | --- | --- | --- |
| C=CCNC1=C2C[C@@H](C)C[C@H](OC)[C@H](O)[C@@H](C)/C=C(\C)[C@H](OC(N)=O)[C@@H](OC)/C=C\C=C(/C)C(=O)NC(=CC1=O)C2=O [17-AAG (Tanespimycin), Tanespimycin] | increased | dose-dependent increase | – | – | – | – | – | – | – | – | – | – | – |
| COc1ccc(-c2ccc3c(N4CCOC[C@@H]4C)nc(N4CCOC[C@@H]4C)nc3n2)cc1CO [AZD8055] | – | – | 0.4965 | 1.3 | 1.61 | 3.2 | 3.4 | 0 | – | – | – | – | – |
| COc1cc2c(Oc3ccc(NC(=O)C4(C(=O)Nc5ccc(F)cc5)CC4)cc3F)ccnc2cc1OCCCN1CCOCC1 [Foretinib] | – | – | – | 1.04 | 1.36 | 1.05 | 0.93 | 0 | 1 | 2.2 | – | – | – |
| O=C1CCc2c(Oc3ccc4c(c3)[C@@H]3[C@H](O4)[C@H]3c3nc4cc(C(F)(F)F)ccc4[nH]3)ccnc2N1 [Lifirafenib (BGB-283)/BeiGene] | – | – | – | 1.05 | 1.21 | 0.81 | 1.1 | 1.43 | 1.1 | 2.1 | – | – | – |
| N#CCNC(=O)c1ccc(-c2ccnc(Nc3ccc(N4CCOCC4)cc3)n2)cc1 [Momelotinib] | – | – | – | – | – | – | – | – | – | – | 0.93 Log2 | 1.05 Log2 | Downregulation |
| CC(=O)NCC(=O)N1[C@@H]2CC[C@H]1c1ccc(Nc3ncc(C(F)(F)F)c(NC4CCC4)n3)cc12 [PF-3814735] | – | – | 0.4383 | 0.99 | 2.6 | 1.2 | 1.86 | 2.43 | – | – | – | – | – |
| CO[C@H]1C[C@@H]2CC[C@@H](C)[C@@](O)(O2)C(=O)C(=O)N2CCCC[C@H]2C(=O)O[C@H]([C@H](C)C[C@@H]2CC[C@@H](OC(=O)C(C)(CO)CO)[C@H](OC)C2)CC(=O)[C@H](C)/C=C(\C)[C@@H](O)[C@@H](OC)C(=O)[C@H](C)C[C@H](C)/C=C/C=C/C=C/1C [Temsirolimus] | – | – | – | – | – | – | – | 0 | 1.2 | 1.6 | – | – | – |
| CCn1c(=O)c(-c2cc[nH]n2)cc2c(C)nc(N)nc21 [Voxtalisib] | – | – | – | 1.1 | 1.24 | 1.23 | 2.4 | 0 | 1.2 | 1.5 | – | – | – |
